Where two headings read alike, the source gives them in different places.
Legend:
[1] = system: L929 nontumor mouse fibroblast cell line; assay: MTS cytotoxicity assay, nontumor cell line; assay type: cell-based; settings: 48 h, triplicate
Method: (§1) Stock solutions of extracts and compounds were prepared by dissolving in DMSO (Sigma-Aldrich, no. D2650) at the concentrations of 100 mg/mL and 100 mM for extracts and compounds, respectively. […] Untreated cells were used as a control, while plain culture medium was used as a blank. Viability was determined with MTS Assay (Abcam #ab197010) according to the manufacturer’s instructions. Absorbance at 490 nm was measured with a spectrophotometer (Epoch, BioTek Instruments). Relative viability ratios were calculated with the equation given below, and IC50 values were determined in GraphPad Prism (version 8.0). [drawing 2]

HEPG2 [2] = assay: MTS cytotoxicity assay; assay type: cell-based; settings: Homo sapiens, 48 h, triplicate, read-out: IC50 ± SEM HEPG2
Method: as §1

MCF7 [3] = assay: MTS cytotoxicity assay; assay type: cell-based; settings: Homo sapiens, 48 h, triplicate
Method: as §1

LoVo [4] = assay: MTS cytotoxicity assay; assay type: cell-based; settings: Homo sapiens, 48 h, triplicate, read-out: IC50 ± SEM LoVo
Method: as §1

HEP3B [5] = assay: MTS cytotoxicity assay; assay type: cell-based; settings: Homo sapiens, 48 h, triplicate
Method: as §1

HCT116 [6] = assay: MTS cytotoxicity assay; assay type: cell-based; settings: Homo sapiens, HCT-116, 48 h, triplicate
Method: as §1

PC3 [7] = assay: MTS cytotoxicity assay; assay type: cell-based; settings: Homo sapiens, PC-3, 48 h, triplicate
Method: as §1

DU145 [8] = assay: MTS cytotoxicity assay; assay type: cell-based; settings: Homo sapiens, DU-145, 48 h, triplicate
Method: as §1

MDA-MB-231 [9] = assay: MTS cytotoxicity assay; assay type: cell-based; settings: Homo sapiens, 48 h, triplicate
Method: as §1

LoVo [10] = assay: Annexin V/propidium iodide staining; assay type: cell-based, human; settings: 48 h at IC50 concentration, flow cytometry
Method: (§2) Apoptosis, necrosis, and viability were analyzed by Annexin V-FITC and […] (PI) staining. For this purpose, cells were seeded at 5 × 10^5 cells per 60 mm dish and incubated overnight to allow attachment. […] Cells were then immediately analyzed on a Beckman Coulter DxFLEX flow cytometry system. Each analysis was performed in triplicate, and 25 × 10^3 events were counted for each tube. Evaluations were done with CytEXPERT software.

MDA-MB-231 [11] = assay: Annexin V/propidium iodide staining; assay type: cell-based, human; settings: 48 h at IC50 concentration, flow cytometry
Method: as §2

HEPG2 [12] = assay: Annexin V/propidium iodide staining; assay type: cell-based, human; settings: 48 h at IC50 concentration, flow cytometry
Method: (§3) Apoptosis, necrosis, and viability were analyzed by Annexin V-FITC and […] (PI) staining. For this purpose, cells were seeded at 5 × 10^5 cells per 60 mm dish and incubated overnight to allow attachment. Then, cells were treated with the selected compounds (1, 2, 4, and 10) for 48 h at respective IC50 concentrations. For flow cytometric analysis, cells were detached with Trypsin-EDTA solution (Thermo Fisher Scientific #25200056), washed with Dulbecco’s phosphate buffered saline (DPBS, Thermo Fisher Scientific #14190094) solution, and suspended in 1 mL of ice-cold Annexin V Binding Buffer (BioLegend #422201). Cells were then stained with 1 μL of Annexin V-FITC (Biovision #1001) and 1 μL PI (Thermo Fisher Scientific # P1304MP, diluted to 250 μg/mL in DPBS) by incubating cells on ice for 15 min in the dark. Cells were then immediately analyzed on a Beckman Coulter DxFLEX flow cytometry system. Each analysis was performed in triplicate, and 25 × 10^3 events were counted for each tube. Evaluations were done with CytEXPERT software.

MCF7 [13] = assay: Annexin V/propidium iodide staining; assay type: cell-based, human; settings: 48 h at IC50 concentration, flow cytometry
Method: as §3

HCT116 [14] = assay: Annexin V/propidium iodide staining; assay type: cell-based, human; settings: 48 h at IC50 concentration, flow cytometry
Method: as §3

HEPG2 [15] = assay: DNA content (cell cycle) analysis; assay type: cell-based, human; settings: 48 h, DNA content by flow cytometry
Method: (§4) To investigate cell cycle progression, cells were seeded as 5 × 10^5 cells per 60 mm dish and incubated overnight for attachment. After incubating with the selected compounds for 48 h, cells were detached with Trypsin-EDTA, washed once with DPBS, and fixed with ice-cold 70% EtOH by storing tubes at 4 °C for an hour. Then, EtOH was discarded by centrifuging cells, and the pellet was suspended in 500 μL cell cycle kit reagent (Beckman Coulter #C03551). Tubes were incubated at room temperature under the dark for 30 min. The experiment was done on triplicate, and 5 × 10^4 cells per test were acquired at a medium flow rate with the Beckman Coulter DxFLEX flow cytometry system. Analyses were performed with ModFit LT version 4.0.

MCF7 [16] = assay: DNA content (cell cycle) analysis; assay type: cell-based, human; settings: 48 h, DNA content by flow cytometry
Method: as §4

LoVo [17] = assay: DNA content (cell cycle) analysis; assay type: cell-based, human; settings: 48 h, DNA content by flow cytometry
Method: as §4

HCT116 [18] = assay: DNA content (cell cycle) analysis; assay type: cell-based, human; settings: 48 h, DNA content by flow cytometry
Method: as §4

MDA-MB-231 [19] = assay: DNA content (cell cycle) analysis; assay type: cell-based, human; settings: 48 h, DNA content by flow cytometry
Method: as §4

[20] = system: human cancer cell lines (HCT116, LoVo, DU145, PC3, HEP3B, HEPG2, MCF7, MDA-MB-231); assay: MTS cytotoxicity assay, panel statements; assay type: cell-based; settings: 48 h, span over compounds and cell lines, read-out: IC50 toward one or more cancer cell lines
Method: as §1

HEP3B [21] = assay: Annexin V/propidium iodide staining; assay type: cell-based, human; settings: 48 h at IC50 concentration, flow cytometry
Method: as §3

HEP3B [22] = assay: DNA content (cell cycle) analysis; assay type: cell-based, human; settings: 48 h, DNA content by flow cytometry
Method: as §4

PC3 [23] = assay: Annexin V/propidium iodide staining; assay type: cell-based, human; settings: 48 h at IC50 concentration, flow cytometry
Method: as §3

DU145 [24] = assay: Annexin V/propidium iodide staining; assay type: cell-based, human; settings: 48 h at IC50 concentration, flow cytometry
Method: as §3

PC3 [25] = assay: DNA content (cell cycle) analysis; assay type: cell-based, human; settings: 48 h, DNA content by flow cytometry
Method: as §4

[26] = read-out: IC50 ± SEM MDA-MB-231

Structure (SMILES)	IC50 ([1]; read-out: IC50 ± SEM L929) [µM]	IC50 (HEPG2 [2]) [µM]	IC50 (MCF7 [3]; read-out: IC50 ± SEM MCF7) [µM]	IC50 (LoVo [4]) [µM]	IC50 (HEP3B [5]; read-out: IC50 ± SEM HEP3B) [µM]	IC50 (HCT116 [6]; read-out: IC50 ± SEM HCT116) [µM]	IC50 (PC3 [7]; read-out: IC50 ± SEM PC3) [µM]	IC50 (DU145 [8]; read-out: IC50 ± SEM DU145) [µM]	IC50 (MDA-MB-231 [9]; [26]) [µM]	apoptosis/necrosis vs control, LoVo (LoVo [10])	cell cycle effect, LoVo (LoVo [17])	IC50 [20] [µM]	other results
COc1c(O)c(OC)c2c(c1O)OC[C@@H](Cc1ccc(O)cc1)C2=O [Compound 7, 3R-(4′-hydroxybenzyl)-6,8-dihydroxy-5,7-dimethoxy-4-chromanone]	> 100	> 100	> 100	> 100	> 100	> 100	> 100	> 100	> 100	–	–	–	–
COc1cccc2c1C(=O)c1c(O)c3c(c(O)c1C2=O)C[C@@](O)(C(=O)CO)C[C@@H]3O[C@H]1C[C@H](N)[C@H](O)[C@H](C)O1 [doxorubicin, reference compound]	> 100	–	2.3 ± 0.3	2.4 ± 0.2	1.1 ± 0.1	0.9 ± 0.1	0.9 ± 0.1	5.9 ± 0.4	2.3 ± 0.3	–	–	–	IC50 ([1]; read-out: IC50 ± SEM L929, extract/fraction): > 100 µg/mL; IC50 (MCF7 [3]; read-out: IC50 ± SEM MCF7, extract/fraction): 2.32 ± 0.28 µg/mL; IC50 (HEP3B [5]; read-out: IC50 ± SEM HEP3B, extract/fraction): 1.1 ± 0.07 µg/mL; IC50 (HCT116 [6]; read-out: IC50 ± SEM HCT116, extract/fraction): 0.86 ± 0.14 µg/mL; IC50 (PC3 [7]; read-out: IC50 ± SEM PC3, extract/fraction): 0.88 ± 0.08 µg/mL; IC50 (DU145 [8]; read-out: IC50 ± SEM DU145, extract/fraction): 5.93 ± 0.38 µg/mL; IC50 (MDA-MB-231 [9]; read-out: IC50 ± SEM MDA-MB-231, extract/fraction): 2.33 ± 0.33 µg/mL
COc1ccc([C@H]2c3c(/C=C/c4ccc(O)cc4)cc(OC)c(C)c3O[C@@H]3Oc4cc(O)cc(O)c4C(=O)[C@@H]32)cc1 [Compound 10, prosperin C]	29.7 ± 1.7	24 ± 2.2	25.2 ± 5.1	16.7 ± 0.8	59.9 ± 6.9	19.3 ± 3.1	36.7 ± 2.5	40.1 ± 2.8	25.5 ± 2.4	apoptosis along with necrosis	G0/G1 phase arrest	8.2 to 37.6	apoptosis/necrosis vs control, MDA-MB-231 (MDA-MB-231 [11]): increased apoptosis and necrosis; apoptosis/necrosis vs control, HEPG2 (HEPG2 [12]): higher late apoptosis and necrosis; apoptosis/necrosis vs control, MCF7 (MCF7 [13]): increased apoptosis and necrosis; apoptosis/necrosis vs control, HCT116 (HCT116 [14]): significant increase in apoptosis; cell cycle effect, HEPG2 (HEPG2 [15]): slight S phase decrease; cell cycle effect, MCF7 (MCF7 [16]): G0/G1 phase arrest; cell cycle effect, HCT116 (HCT116 [18]): G0/G1 phase arrest; cell cycle effect, MDA-MB-231 (MDA-MB-231 [19]): G0/G1 phase arrest
O=C1/C(=C/c2ccc(O)cc2)COc2cc(O)cc(O)c21 [Compound 4, (E)-4′-O-demethyleucomin]	> 100	> 100	95.3 ± 4.7	40.4 ± 2.9	33.7 ± 3	45.8 ± 8.4	88.1 ± 8.6	> 100	77.5 ± 3.9	–	–	8.2 to 37.6	apoptosis/necrosis vs control, HEP3B (HEP3B [21]): significantly increased early apoptosis along with necrosis; cell cycle effect, HEP3B (HEP3B [22]): G2/M phase arrest
COc1cc(/C=C/c2ccc(O)cc2)cc(O)c1C [Compound 1, 3,4′-dihydroxy-4-methyl-5-methoxystilbene]	33.7 ± 3.9	37.6 ± 5.3	53.5 ± 9.1	10.6 ± 0.5	59.8 ± 4.2	54.6 ± 5.5	21.3 ± 2.1	29.7 ± 4.4	79.6 ± 5.6	apoptosis along with necrosis	S phase arrest	8.2 to 37.6	apoptosis/necrosis vs control, PC3 (PC3 [23]): promoting apoptosis and necrosis; apoptosis/necrosis vs control, DU145 (DU145 [24]): promoting apoptosis and necrosis; cell cycle effect, PC3 (PC3 [25]): S phase arrest
COc1cc(/C=C/c2cc(O)c(C)c(O)c2)ccc1O [Compound 3, scillabene A]	> 100	> 100	> 100	83.4 ± 3.9	82.7 ± 3.9	> 100	> 100	> 100	> 100	–	–	–	–
COc1cc(O)cc(/C=C/c2ccc(O)cc2)c1 [Compound 2, pinostilbene]	13.4 ± 1.7	51.8 ± 10	95.7 ± 15	8.2 ± 0.4	93.5 ± 8.9	71.3 ± 12.6	88.7 ± 10.9	> 100	23.3 ± 1.4	apoptosis along with necrosis	S phase arrest	8.2 to 37.6	apoptosis/necrosis vs control, MDA-MB-231 (MDA-MB-231 [11]): more efficient in inducing apoptosis compared to 10; cell cycle effect, MDA-MB-231 (MDA-MB-231 [19]): S phase arrest
COc1ccc(C(c2c(O)cc3c(c2O)C(=O)/C(=C/c2ccc(O)cc2)CO3)c2coc3cc(O)cc(O)c3c2=O)cc1 (stereo not shown) [Compound 9, prosperin B]	> 100	> 100	> 100	> 100	> 100	75.8 ± 8	> 100	> 100	> 100	–	–	–	–
